# Like-named read-outs stand apart in the source and are kept apart here.
# Key:
# [1] = test system: mouse fibroblasts L929 cells; parameters: method as in PMID 31022878, PMID 30744161; conditions: thiosemicarbazides 1a–27a; cited from earlier work
# T. gondii RH-GFP [2] = test system: T. gondii RH-GFP; parameters: method as in PMID 31022878, PMID 30744161; conditions: thiosemicarbazides 1a–27a, cited from earlier work; for SI: CC30/IC50Tg; for IC50Tg: T. gondii infected Hs27 cells
# [3] = test system: mouse fibroblasts L929 cells; test: Cell viability assay (MTT, ISO 10993-5); format: cell-based; conditions: 24 h, highest dilution causing 30% or higher destruction of cells
# Experimental: Culture medium RPMI 1640, without phenol red (Biowest, Nuaille, France) supplemented with 10% FBS, 2 mM […] penicillin, 100 μg/mL streptomycin were used. Briefly, 1 × 10^4/well of L929 cells were placed in 96-well plates and incubated for 24 h at 37 °C and 10% CO2. Afterwards, the old culture medium was replaced with 100 μL of the compound, drug or inhibitor, diluted in culture medium and the cells treated for 24 h. Additionally, cells were treated with 0.03-4.0% concentration of DMSO as the solvent (data not shown). Then, 50 μL of 1 mg/mL of MTT solution in RPMI 1640 without phenol red was added to each well and incubated for 2 h at 37 °C and 10% CO2. Next, cell culture medium was aspirated carefully and 150 μL of DMSO was added to each well, and the plates were gently mixed. Then, 25 μL 0.1 M glycine buffer (pH 10.5) (Sigma-Aldrich) was added. The optical density at 570 nm using a multi-mode microplate reader SpectraMax® i3 (Syngen, Taipei City, Taiwan) was recorded. The results were expressed as a percentage of viability compared to untreated cells. All experiments were performed in triplicate. The reported methyl thiazolyltetrazole (MTT) method was used to study in vitro cytotoxic profile of the s-triazoles 1b-27b to the host cells (L929). Experiments were performed in accordance with the international standard IS0-10993-5:2009. […] The data for acyclic precursors 1a-27a are also included for comparison[39]^,[40].
# T. gondii RH-GFP [4] = test: Antiparasitic assay: T. gondii RH-GFP proliferation in Hs27 cells; format: cell-based, Toxoplasma gondii; conditions: for IC50: Toxoplasma gondii, read-out: IC50Tg; for SI: selectivity index, CC30 (L929)/IC50Tg
# [5] = T. gondii RH-GFP in Hs27 cells, 96 h, values above highest tested concentration extrapolated
Structure (SMILES),CC30 [1],SI (T. gondii RH-GFP [2]),IC50Tg (T. gondii RH-GFP [2]),CC30 [3],IC50 (T. gondii RH-GFP [4]; [5]),SI (T. gondii RH-GFP [4]),melting point,"IC50 (T. gondii RH-GFP [4]; HS27, 96 h)"
Cc1nc[nH]c1C(=O)NNC(=S)Nc1ccccc1F [1a],289.6 µg/mL,4.21,68.83 µg/mL,,,,,
Cc1nc[nH]c1-c1n[nH]c(=S)n1-c1ccccc1F [1b],,,,1270.57 µg/mL,220 µg/mL,5.78,,
Cc1nc[nH]c1C(=O)NNC(=S)Nc1cccc(F)c1 [2a],125.17 µg/mL,1.10,113.45 µg/mL,,,,,
"Cc1nc[nH]c1-c1n[nH]c(=S)n1-c1cccc(F)c1 [2b, 4–(3-fluorophenyl)-5–(4-methylimidazol-5-yl)-1,2,4-triazole-3-thione]",,,,,103 µg/mL,24.26,284 °C,
Cc1nc[nH]c1C(=O)NNC(=S)Nc1ccc(F)cc1 [3a],266.01 µg/mL,2.41,110.31 µg/mL,,,,,
Cc1nc[nH]c1-c1n[nH]c(=S)n1-c1ccc(F)cc1 [3b],,,,113.71 µg/mL,206 µg/mL,0.55,,
Cc1nc[nH]c1C(=O)NNC(=S)Nc1ccccc1Cl [4a],143.15 µg/mL,4.02,35.61 µg/mL,,,,,
"Cc1nc[nH]c1-c1n[nH]c(=S)n1-c1ccccc1Cl [4b, 4–(2-chlorophenyl)-5–(4-methylimidazol-5-yl)-1,2,4-triazole-3-thione]",,,,698.23 µg/mL,345 µg/mL,2.03,243.4 °C,
Cc1nc[nH]c1C(=O)NNC(=S)Nc1cccc(Cl)c1 [5a],96.78 µg/mL,,25.70 µg/mL,,,,,
"Cc1nc[nH]c1-c1n[nH]c(=S)n1-c1cccc(Cl)c1 [5b, 4–(3-chlorophenyl)-5–(4-methylimidazol-5-yl)-1,2,4-triazole-3-thione]",,,,721.27 µg/mL,310 µg/mL,2.32,297.8 °C,
Cc1nc[nH]c1C(=O)NNC(=S)Nc1ccc(Cl)cc1 [6a],94.12 µg/mL,1.28,73.37 µg/mL,,,,,
"Cc1nc[nH]c1-c1n[nH]c(=S)n1-c1ccc(Cl)cc1 [6b, 4–(4-chlorophenyl)-5–(4-methylimidazol-5-yl)-1,2,4-triazole-3-thione]",,,,460.26 µg/mL,267 µg/mL,1.73,255.8 °C,
Cc1nc[nH]c1C(=O)NNC(=S)Nc1ccccc1Br [7a],205.31 µg/mL,7.43,27.65 µg/mL,,,,,
"Cc1nc[nH]c1-c1n[nH]c(=S)n1-c1ccccc1Br [7b, 4–(2-bromophenyl)-5–(4-methylimidazol-5-yl)-1,2,4-triazole-3-thione]",,,,2116.90 µg/mL,66.7 µg/mL,31.72,235.6 °C,
Cc1nc[nH]c1C(=O)NNC(=S)Nc1cccc(Br)c1 [8a],96.12 µg/mL,6.15,15.64 µg/mL,,,,,
"Cc1nc[nH]c1-c1n[nH]c(=S)n1-c1cccc(Br)c1 [8b, 4–(3-bromophenyl)-5–(4-methylimidazol-5-yl)-1,2,4-triazole-3-thione]",,,,660.09 µg/mL,103 µg/mL,6.41,299.7 °C,
Cc1nc[nH]c1C(=O)NNC(=S)Nc1ccc(Br)cc1 [9a],48.89 µg/mL,3.36,14.57 µg/mL,,,,,
"Cc1nc[nH]c1-c1n[nH]c(=S)n1-c1ccc(Br)cc1 [9b, 4–(4-bromophenyl)-5–(4-methylimidazol-5-yl)-1,2,4-triazole-3-thione]",,,,225.58 µg/mL,153 µg/mL,1.48,265.9 °C,
Cc1nc[nH]c1C(=O)NNC(=S)Nc1ccccc1I [10a],101.58 µg/mL,5.00,20.31 µg/mL,,,,,
"Cc1nc[nH]c1-c1n[nH]c(=S)n1-c1ccccc1I [10b, 4–(2-iodophenyl)-5–(4-methylimidazol-5-yl)-1,2,4-triazole-3-thione]",,,,1021.41 µg/mL,80.3 µg/mL,12.73,297.6 °C,
Cc1nc[nH]c1C(=O)NNC(=S)Nc1cccc(I)c1 [11a],85.57 µg/mL,8.31,10.3 µg/mL,,,,,
"Cc1nc[nH]c1-c1n[nH]c(=S)n1-c1cccc(I)c1 [11b, 4–(3-iodophenyl)-5–(4-methylimidazol-5-yl)-1,2,4-triazole-3-thione]",,,,625.17 µg/mL,36.4 µg/mL,17.16,276.5 °C,
Cc1nc[nH]c1C(=O)NNC(=S)Nc1ccc(I)cc1 [12a],71.58 µg/mL,3.25,22.01 µg/mL,,,,,

Structure (SMILES),CC30 [1],SI (T. gondii RH-GFP [2]),IC50Tg (T. gondii RH-GFP [2]),CC30 [3],IC50 (T. gondii RH-GFP [4]; [5]),SI (T. gondii RH-GFP [4]),melting point,"IC50 (T. gondii RH-GFP [4]; HS27, 96 h)"
Cc1nc[nH]c1C(=O)NNC(=S)Nc1cc(F)ccc1F [13a],158.49 µg/mL,2.95,53.7 µg/mL,,,,,
"Cc1nc[nH]c1-c1n[nH]c(=S)n1-c1cc(F)ccc1F [13b, 4–(2,5-difluorophenyl)-5–(4-methylimidazol-5-yl)-1,2,4-triazole-3-thione]",,,,,224 µg/mL,11.14,253.9 °C,
Cc1ccccc1NC(=S)NNC(=O)c1[nH]cnc1C [14a],288.4 µg/mL,1.92,∼150.31 µg/mL,,,,,
Cc1cccc(NC(=S)NNC(=O)c2[nH]cnc2C)c1 [15a],50.12 µg/mL,1.35,37.15 µg/mL,,,,,
Cc1ccc(NC(=S)NNC(=O)c2[nH]cnc2C)cc1 [16a],34.67 µg/mL,0.60,∼57.58 µg/mL,,,,,
Cc1ccc(-n2c(-c3[nH]cnc3C)n[nH]c2=S)cc1 [16b],,,,1113.53 µg/mL,110 µg/mL,10.11,,
Cc1ccc(NC(=S)NNC(=O)c2[nH]cnc2C)cc1Cl [17a],28.18 µg/mL,1.51,18.62 µg/mL,,,,,
COc1ccccc1NC(=S)NNC(=O)c1[nH]cnc1C [18a],138.04 µg/mL,4.17,33.11 µg/mL,,,,,
"COc1ccccc1-n1c(-c2[nH]cnc2C)n[nH]c1=S [18b, 4–(2-methoxyphenyl)-5–(4-methylimidazol-5-yl)-1,2,4-triazole-3-thione]",,,,,93.2 µg/mL,,145.2 °C,
COc1cccc(NC(=S)NNC(=O)c2[nH]cnc2C)c1 [19a],165.96 µg/mL,2.08,79.65 µg/mL,,,,,
"COc1cccc(-n2c(-c3[nH]cnc3C)n[nH]c2=S)c1 [19b, 4–(3-methoxyphenyl)-5–(4-methylimidazol-5-yl)-1,2,4-triazole-3-thione]",,,,,96.8 µg/mL,,228.8 °C,
COc1ccc(NC(=S)NNC(=O)c2nc[nH]c2C)cc1 [20a],389.05 µg/mL,3.41,113.99 µg/mL,,,,,
COc1ccc(NC(=S)NNC(=O)c2[nH]cnc2C)cc1OC [21a],>500 µg/mL,,∼174.98 µg/mL,,,,,
CCOc1ccc(NC(=S)NNC(=O)c2[nH]cnc2C)cc1 [22a],500 µg/mL,5.25,95.28 µg/mL,,,,,
CC(=O)c1cccc(NC(=S)NNC(=O)c2[nH]cnc2C)c1 [23a],206.54 µg/mL,2.16,95.50 µg/mL,,,,,
"CC(=O)c1cccc(-n2c(-c3[nH]cnc3C)n[nH]c2=S)c1 [23b, 4–(3-acetylphenyl)-5–(4-methylimidazol-5-yl)-1,2,4-triazole-3-thione]",,,,,141 µg/mL,17.79,151.9 °C,
Cc1nc[nH]c1C(=O)NNC(=S)Nc1c(C(C)C)cccc1C(C)C [24a],190.55 µg/mL,1.95,97.72 µg/mL,,,,,
Cc1nc[nH]c1C(=O)NNC(=S)Nc1ccc(N(C)C)cc1 [25a],112.2 µg/mL,0.68,∼164.70 µg/mL,,,,,
CCN(CC)c1ccc(NC(=S)NNC(=O)c2[nH]cnc2C)cc1 [26a],63.1 µg/mL,2.46,25.70 µg/mL,,,,,
"CCc1nc(N)nc(N)c1-c1ccc(Cl)cc1 [PYR, pyrimethamine]",,,,11.37 µg/mL,1.79 µg/mL,6.34,,
"Nc1ccc(S(=O)(=O)Nc2ncccn2)cc1 [SDZ, sulfadiazine]",,,,2161.72 µg/mL,,0.44,,4860 µg/mL
"COc1cc(Cc2cnc(N)nc2N)cc(OC)c1OC [TRI, trimethoprim, reference compound]",,,,336.20 µg/mL,,16.07,,20.9 µg/mL
